In patent publication US20110028438A1, “MEDICAL USE OF 3-2,2,2-TRIMETHYLHYDRAZINIUM PROPIONATE SALTS” (JSC GRINDEKS, priority 2007, published 2011):
Marks after values point to notes of the source that are not given here.

Key:
adult male Wistar rats = test: Myocardial infarction in vivo (coronary artery occlusion and 120 minute reperfusion); set-up: species or system rat; conditions: for Area of Necrosis, % of Area at Risk / Area of Risk/left ventricle area / Infarct size, % of control: rats, 100 mg/kg by mouth for 14 days; for Area of Necrosis, % of Area at Risk: after 120 minute reperfusion; for Area of Risk/left ventricle area: area at risk expressed as percentage of the left ventricle; for Infarct size, % of control: relative to saline control group; for Therapeutic effect in in vivo myocardial infarction model compared with Meldonium dihydrate: result in words
Method: Experiments were conducted on adult male Wistar rats with initial weight of 300-350 g. During the experiment, the animals were kept in Standard crates in groups of 8. The feed was a standardized diet R70 (LABFOR, Lactamin AB, Sweden). The room temperature was kept at 21-23° C., relative humidity at 65±10%, 12 hour light/darkness cycle.
Rats weighing approximately 300 g were randomly divided into 4 groups of 8 animals each. The first group received saline by mouth (control group), the second received 100 mg/kg Meldonium dihydrate by mouth, the third 100mg/kg Meldonium hydrogen fumarate and the fourth 100 mg/kg Meldonium dihydrogen phosphate received for 14 days.
Rats were anesthetized with sodium pentobarbital (60 mg/kg i.p.). They were intubated and artificially respirated with rodent respirator (Rodent Ventilator 7025, Ugo Basile, (tally) with 15 mL/kg room air at a respiration rate of 55 breaths/min. Thoracic was open on the left side of breastbone by cutting fourth and fifths, if necessary, ribs. The pericard was open and 5/0 polypropylene suture (Surgipro II, Syneture) was passed under the left anterior descending coronary artery and threaded through a small plastic tube to permit reversible occlusion of the coronart artery. Coronary flow was measured using an ultrasound flow detector (HSE) and PowerLab 8/30 system from ADlnstruments.
Occlusion was performed by constricting threads through a plastic tube.
At the end of the 120 minute reperfusion, After reperfusion hearts were excised and retrogradely perfused via aorta at a constant pressure of 50 mm Hg, with oxygenated Krebs-Henseleit buffer (content in mmol/L: NaCl 118, Ca Cl2 2.52, MgCl2 1.64, NaHCO3 24.88, KH2PO4 1.18, glucose 10.0, EDTA 0.05) pH 7.3-7.5 at 37° C. Then after 10 min the left anterior descending coronary artery was relegated and the risk zone was delineated with 4 mL of 0.1% methylene blue solution in Krebs-Henseleit buffer infused via the aorta root. Hearts were sectioned transversely from the apex to the base of 2 mm thickness and incubated in 1% triphenyl-tetrazolium chloride in phosphate buffer (pH 7.4, 37° C.) for 10 minutes to stain viable tissue red and necrotic tissue white. Afterward, the right ventricle was cut off and photos of the left-ventricle slices were made with a Minolta 7D photo camera. Computerized planemetric analysis of photographs was performed using Image-Pro Plus 4.5.1 software to determine the area at risk (AR) and area of necrosis (AN) expressed as percentage of the left ventricle (LV). Obtained values were then used to calculate the infarct size (IS) as percentage of risk area according to formula: […]

[1] = as disclosed in EP 1667960 A; cited from earlier work

C[N+](C)(C)NCCC(=O)[O-] [Meldonium dihydrate, 3-(2,2,2-Trimethylhydrazinium) propionate dihydrate, reference compound]
Area of Necrosis, % of Area at Risk (adult male Wistar rats): 64.0 ± 2.7 % of Area at Risk | Area of Risk/left ventricle area (adult male Wistar rats): 58.0 ± 2.2 | Infarct size, % of control (adult male Wistar rats): 99.0 ± 4.2 % of control

C[N+](C)(C)NCCC(=O)O.O=P([O-])(O)O [Meldonium dihydrogen phosphate, 3-(2,2,2-trimethylhydrazinium) propionate dihydrogen phosphate]
Therapeutic effect in in vivo myocardial infarction model compared with Meldonium dihydrate (adult male Wistar rats): statistically better therapeutically effect than Meldonium dihydrate | Area of Necrosis, % of Area at Risk (adult male Wistar rats): 50.9 ± 2.6*^,# % of Area at Risk | Area of Risk/left ventricle area (adult male Wistar rats): 57.0 ± 3.0 | Infarct size, % of control (adult male Wistar rats): 79.0 ± 4.1*^,# % of control | Stability comparatively with Meldonium dihydrate [1]: more stable substance comparatively with Meldonium dihydrate

C[N+](C)(C)NCCC(=O)O.O=C([O-])/C=C/C(=O)O [Meldonium hydrogen fumarate, 3-(2,2,2-trimethylhydrazinium) propionate hydrogen fumarate]
Therapeutic effect in in vivo myocardial infarction model compared with Meldonium dihydrate (adult male Wistar rats): more effective as Meldonium dihydrate | Area of Necrosis, % of Area at Risk (adult male Wistar rats): 52.2 ± 4.3 % of Area at Risk | Area of Risk/left ventricle area (adult male Wistar rats): 62.0 ± 3.5 | Infarct size, % of control (adult male Wistar rats): 81.0 ± 6.6 % of control | Stability comparatively with Meldonium dihydrate [1]: more stable substance comparatively with Meldonium dihydrate
